Results on seven compounds are retold here after patent publication EP0006752A1, “Compositions for the treatment of chronic trypanosomiasis infections” (Merck & Co., Inc., priority 1978, dated 1980).

Values joined by “and” are separate entries in the source; they are usually repeats but may differ in a detail not shown here. Identical values can stand only once.

In experiment [1] the test system is T. brucei TREU 667/1. Briefly: Chronic (21 day old) T. brucei TREU 667/1 infection in mice, cure/relapse after i.p. treatment. The settings on record: for Number Cured Out of Total Treated: mice infected for 21 days; for time after treatment until signs of relapse: some of the mice treated with the prophylactic drugs (pretreatment experiments of Table 3). The experiment is classed as in vivo, Trypanosoma brucei. From the text: The mice used were adult CFLP females approximately 25-30 g. and maintained on standard laboratory diet throughout the experiments.
Two stabilates were used throughout the experiments, the main one was T. brucei TREU 667/1 originally obtained from Dr. A. R. Gray, Edinburgh, and the other T. brucei LUMP 1001 obtained from Professor W. H. R. Lumsden, London. These were cryogenically maintained as previously described in Jennings, Whitelaw & Urquhart, Parasitol. 75, 143-153 (1977).
Each mouse was inoculated intraperitoneally with 1 x 10^4 trypanosomes prepared from the stabilate in phosphate glucose saline pH 8.0. Chemotherapy commenced at various times post inoculation. Each mouse was weighed and the requisite dose of drug administered intraperitoneally in a volume of 0.1 ml./5g. body weight.
Compounds I, II and III were used in crystalline powder forms. These were first ground finely in an agate mortar and then suspended in physiological saline for intraperitoneal injection. A drop of detergent (Tween 80) was added to the suspensions to facilitate wetting. Care was taken during dispensing that the suspensions were properly dispersed, and because of some slight unavoidable settlement in the syringe, the mice were always injected at random and usually not more than 3 mice were injected from the one syringe full of drug suspension. As the regimen was usually 4 daily doses at the respective drug concentration, any errors were evenly distributed.
The other established drugs used were Berenil (diminazene aceturate, obtained from Fabwerke, Hoechst, Germany, 40 mg./kg. unless otherwise specified), Ethidium (homidium bromide 7.5 mg./kg.) and Prothidium (pyrithidium bromide 10 mg./kg. obtained from Boots Pure Drug Co., England) and Samorin (isometamidium 2 mg./kg. obtained from May & Baker Ltd.). […]
The mice were examined for parasites on the day treatment was initiated (usually day 3 or 21 of infection) by examination of a drop of tail blood under x40 objective (wet film technique). Subsequent to treatment they were examined every 2 days for 6 days and thereafter once per week until relapse occurred or until the experiment was terminated (in some instances 6-7 months).
The initial work with Berenil was carried out using the dose rate of 40 mg./kg. which was the dose of drug used in all the original work on chronic infections.
In addition, groups of mice were given Berenil and the Compound III simultaneously, or one injection of Berenil followed by one injection of Compound III in order to compress the treatment into the minimum number of injections.

Experiment [2] relates to T. brucei LUMP 1001. Kind of experiment: Chronic (21 day old) T. brucei LUMP 1001 infection in mice, cure/relapse after i.p. treatment. The experiment is classed as in vivo, Trypanosoma brucei. From the text:
The mice used were adult CFLP females approximately 25-30 g. and maintained on standard laboratory diet throughout the experiments. Two stabilates were used throughout the experiments, the main one was T. brucei TREU 667/1 originally obtained from Dr. A. R. Gray, Edinburgh, and the other T. brucei LUMP 1001 obtained from Professor […], London. These were cryogenically maintained as previously described in Jennings, […], Parasitol. 75, 143-153 (1977). Each mouse was inoculated intraperitoneally with 1 x 10^4 trypanosomes prepared from the stabilate in phosphate glucose saline pH 8.0. Chemotherapy commenced at various times post inoculation. Each mouse was weighed and the requisite dose of drug administered intraperitoneally in a volume of 0.1 ml./5g. body weight. Compounds I, II and III were used in crystalline powder forms. These were first ground finely in an agate mortar and then suspended in physiological saline for intraperitoneal injection. A drop of detergent (Tween 80) was added to the suspensions to facilitate wetting. Care was taken during dispensing that the suspensions were properly dispersed, and because of some slight unavoidable settlement in the syringe, the mice were always injected at random and usually not more than 3 mice were injected from the one syringe full of drug suspension. As the regimen was usually 4 daily doses at the respective drug concentration, any errors were evenly distributed. […] All were prepared according to the manufacturer's instructions and were injected intraperitoneally. The mice were examined for parasites on the day treatment was initiated (usually day 3 or 21 of infection) by examination of a drop of tail blood under x40 objective (wet film technique). […] It was known that T. brucei LUMP 1001 relapsed after treatment of a 21 day old infection Jennings, […], Parasitol. 75, 143-153 (1977), and indeed tended to relapse earlier after treatment with Berenil at 40 mg./kg. than any of the other stabilates tested (approximately 20 days). The original experiment using 40 mg./kg. Berenil as pre-treatment followed by Compound III was disappointing, as only 3 out of a total of 27 mice appeared to be cured by the various dose regimens. The experiment was therefore repeated increasing the pretreatment dose of Berenil to 60 mg./kg. and 80 mg./kg., the latter being given as two doses of 40 mg./kg. on consecutive days to avoid the possibility of deaths due to the toxicity of Berenil at that dose level in mice. This pretreatment was followed by administration of Compound III at 4 doses of 80 mg./kg. and in both instances where the increased Berenil dose level (60 mg./kg. and 80 mg./kg.) was used, satisfactory permanent cures were accomplished, whereas in the respective controls all of the mice relapsed.

For experiment [3], the system named is T. brucei TREU 667/1. Briefly: Early (3 day old) T. brucei TREU 667/1 infection in mice, cure after i.p. treatment. The experiment is classed as in vivo, Trypanosoma brucei. The settings on record: for Number Cured Out of Total Treated: CFLP mice infected for 3 days. From the text:
The mice used were adult CFLP females approximately 25-30 g. and maintained on standard laboratory diet throughout the experiments. Two stabilates were used throughout the experiments, the main one was T. brucei TREU 667/1 originally obtained from Dr. A. R. Gray, Edinburgh, and the other T. brucei LUMP 1001 obtained from Professor […], London. These were cryogenically maintained as previously described in Jennings, […], Parasitol. 75, 143-153 (1977). Each mouse was inoculated intraperitoneally with 1 x 10^4 trypanosomes prepared from the stabilate in phosphate glucose saline pH 8.0. Chemotherapy commenced at various times post inoculation. Each mouse was weighed and the requisite dose of drug administered intraperitoneally in a volume of 0.1 ml./5g. body weight. Compounds I, II and III were used in crystalline powder forms. These were first ground finely in an agate mortar and then suspended in physiological saline for intraperitoneal injection. A drop of detergent (Tween 80) was added to the suspensions to facilitate wetting. Care was taken during dispensing that the suspensions were properly dispersed, and because of some slight unavoidable settlement in the syringe, the mice were always injected at random and usually not more than 3 mice were injected from the one syringe full of drug suspension. As the regimen was usually 4 daily doses at the respective drug concentration, any errors were evenly distributed. […] All were prepared according to the manufacturer's instructions and were injected intraperitoneally. The mice were examined for parasites on the day treatment was initiated (usually day 3 or 21 of infection) by examination of a drop of tail blood under x40 objective (wet film technique). […] The three compounds, I, II and III were used at various dose levels against an early infection of T. brucei TREU 667/1 in CFLP. The dose regimen was initiated 3 days after infection and the intraperitoneal injections of drug suspension were given daily.

Experiment [4] relates to T. brucei LUMP 1001. The settings on record: 21 day old infection; Berenil at 40 mg./kg.; cited from earlier work.
Where [5] appears, read: 4 x 5 mg./kg. daily i.p., cure = no parasites in blood for at least 90 days.
Setting [6] is: 4 x 20 mg./kg. daily i.p., cure = no parasites in blood for at least 90 days.
Where [7] appears, read: single drug 4 x 20 mg./kg. daily i.p.
[8] abbreviates: Berenil 40 mg./kg. day 21, no further treatment.

For the compound `CC[n+]1c(-c2ccccc2)c2cc(N)ccc2c2ccc(N)cc21` [Ethidium, homidium bromide], the “No. Cured Out of Total Treated” value in the experiment on T. brucei TREU 667/1 [1] (Ethidium 7.5 mg./kg. day 21, no further treatment) is 0/10.

Regarding `Cn1c([N+](=O)[O-])cnc1C1=NOC2CCCCCCC12` (stereo not drawn) [Compound III], the “No. Cured Out of Total Treated” value with T. brucei LUMP 1001 [2] (no pretreatment, III 4 x 80 mg./kg. commencing day 24) was 0/10; with T. brucei TREU 667/1 [1] (no pretreatment, III 4 x 20 mg./kg. commencing day 24) it was 0/8. Also, the cure with T. brucei TREU 667/1 [3] (3-day old infection, 4 doses at 20 mg./kg.) is reported as 100%. Moreover, the “Number Cured Out of Total Treated” value in the experiment on T. brucei TREU 667/1 [3] (setting [5]) was 2/8; in the experiment on T. brucei TREU 667/1 [3] (setting [6]), 8/8; in the experiment with T. brucei TREU 667/1 [1] (setting [7]) it was 0/9 and 0/10 and 0/8; in the experiment on T. brucei TREU 667/1 [1] (single drug 4 x 80 mg./kg. daily i.p.) it was 0/10. In addition, the “period after treatment until the last of the mice relapsed” value in the experiment on T. brucei TREU 667/1 [1] (established (21 day) infection, 4 doses at 80 mg./kg.) is given as 42 days.

The compound `Cn1c([N+](=O)[O-])cnc1C1=NOC2CCCCC12` (stereo not drawn) [Compound II, 3'-(1-methyl-5-nitroimidazol-2-yl)-4'5'-tetramethylene-Δ^2-isoxazoline] gave a cure rate in the experiment with T. brucei TREU 667/1 [3] (3-day old infection, 4 doses of 80 mg./kg.) of 100%. For the same compound, the “Number Cured Out of Total Treated” value is recorded as 0/8 in the experiment with T. brucei TREU 667/1 [3] (setting [5]); 2/8 with T. brucei TREU 667/1 [3] (setting [6]); 10/10 with T. brucei TREU 667/1 [3] (4 x 80 mg./kg. daily i.p., separate experiment); 0/9 with T. brucei TREU 667/1 [1] (setting [7]).

Consider `N=C(N)c1ccc(N=NNc2ccc(C(=N)N)cc2)cc1` [Berenil, diminazene aceturate], for which the “No. Cured Out of Total Treated” value in the experiment on T. brucei LUMP 1001 [2] (setting [8]) was 0/10 and 0/9; in the experiment with T. brucei LUMP 1001 [2] (Berenil 60 mg./kg. day 21, no further treatment), 0/8; in the experiment with T. brucei LUMP 1001 [2] (Berenil 80 mg./kg., given as 2 x 40 mg./kg. on day 21 and day 24, no further treatment), 0/8; in the experiment with T. brucei TREU 667/1 [1] (Berenil 5 mg./kg. day 21, no further treatment), 0/10; with T. brucei TREU 667/1 [1] (Berenil 5 mg./kg. day 21, then Berenil 5 mg./kg. day 24), 0/10; in the experiment with T. brucei TREU 667/1 [1] (Berenil 20 mg./kg. day 21, no further treatment), 0/10. In addition, the “No. Cured Out of Total Treated” value in the experiment on T. brucei TREU 667/1 [1] (setting [8]) was 1/10 and 1/9. Further, the “permanent cure of early infections” value in the experiment with T. brucei TREU 667/1 [3] (early infection, Berenil 5 mg./kg.) was “can be permanently cured”. In addition, the “time for which all circulating trypanosomes are cleared from the bloodstream” value in the experiment with T. brucei TREU 667/1 [1] (5 mg./kg. Berenil) was “up to 20 days”. Moreover, the “outcome after treatment” value with T. brucei TREU 667/1 [1] (21 day old infection, 160 mg./kg. Berenil given subcutaneously) was “relapsed”. Also, the cure rate in the experiment on T. brucei TREU 667/1 [1] (Berenil (40 mg./kg.) given alone, in the particular experiment with the simultaneous group) was found to be 60%. In the experiment on T. brucei TREU 667/1 [1] (infected 21 days, Berenil alone 40 mg./kg., retreated every 30 days for a total of 5 months, a proportion of mice), the “outcome after repeated treatment” value is reported as “eventually become parasitaemic again”. Moreover, the “time to relapse after treatment” value in the experiment on T. brucei LUMP 1001 [4] is on record as “approximately 20 days”.

Consider `Cn1c([N+](=O)[O-])cnc1COC(N)=O` [Compound I, 1-methyl-5-nitroimidazol-2-ylmethylcarbamate], for which the “Number Cured Out of Total Treated” value with T. brucei TREU 667/1 [3] (setting [5]) and with T. brucei TREU 667/1 [3] (setting [6]) was 0/8 in each case.

For `Cc1cc(Nc2ccc3c(c2)c(-c2ccc(N)cc2)[n+](C)c2cc(N)ccc32)nc(N)[n+]1C.[Br-].[Br-]` [Prothidium, pyrithidium bromide], the “No. Cured Out of Total Treated” value in the experiment on T. brucei TREU 667/1 [1] (Prothidium 10.0 mg./kg. day 21, no further treatment) is 0/8. Besides, the “time after treatment until signs of relapse” value with T. brucei TREU 667/1 [1] is reported as 6-7 months.

Regarding `CC[n+]1c(-c2ccccc2)c2cc(N/N=N/c3cccc(C(=N)N)c3)ccc2c2ccc(N)cc21` [Samorin, isometamidium], the “No. Cured Out of Total Treated” value in the experiment on T. brucei TREU 667/1 [1] (Samorin 2.0 mg./kg. day 21, no further treatment) is 0/10. The “time after treatment until signs of relapse” value in the experiment on T. brucei TREU 667/1 [1] is recorded as 6-7 months.
